Test results taken from patent publication US8541407B2 (ArQule, Inc., priority 2010, dated 2013).
Values belong to the molecule of their own block, whether it stands above or below them.

Target: AKT1 (Homo sapiens (Human), UniProt P31749)
Test: Inactive Akt Alpha Screen Assay
Details: non *labeled: Akt Alpha Screen assay; read-out: AKT1 biochemical assay, IC50
Method in brief: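 AKT1 activated in situ by PDK1, MAPKAPK2, lipid vesicles and ATP, then phosphorylating biotinylated crosstide for 30 min at room temperature. Stopped with 10 mM EDTA; phosphopeptide detected by AlphaScreen using phospho-AKT substrate antibody (1:350), Protein A acceptor and streptavidin donor beads, 90 min dark, ex 640/em 570 nm.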

Chain of AKT1 (P31749 whole entry): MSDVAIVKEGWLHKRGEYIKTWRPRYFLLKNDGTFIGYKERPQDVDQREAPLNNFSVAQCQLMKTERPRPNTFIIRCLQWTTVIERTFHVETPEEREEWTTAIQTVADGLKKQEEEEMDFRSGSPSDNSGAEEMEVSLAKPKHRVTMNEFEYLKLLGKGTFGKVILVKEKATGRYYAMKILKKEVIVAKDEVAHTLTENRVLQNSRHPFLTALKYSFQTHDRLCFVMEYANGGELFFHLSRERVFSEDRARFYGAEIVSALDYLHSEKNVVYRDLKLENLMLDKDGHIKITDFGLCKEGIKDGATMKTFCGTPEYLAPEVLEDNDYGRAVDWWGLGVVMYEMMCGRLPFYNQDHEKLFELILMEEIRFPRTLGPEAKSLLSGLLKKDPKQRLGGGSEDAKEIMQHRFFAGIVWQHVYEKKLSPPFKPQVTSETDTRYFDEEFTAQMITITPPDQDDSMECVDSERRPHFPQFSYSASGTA

SMILES: CC(=O)c1ccc(S(=O)(=O)NC2CCN(Cc3ccc(-c4nnc5n4-c4cccnc4Nc4ccccc4-5)cc3)CC2)cc1 [Example 155, N-(1-(4-(9H-benzo[f]pyrido[2,3-b][1,2,4]triazolo[4,3-d][1,4]diazepin-3-yl)benzyl)piperidin-4-yl)-4-acetylbenzenesulfonamide]
IC50: 3400 nM

SMILES: O=S(=O)(NC1CCN(Cc2ccc(-c3nnc4n3-c3cccnc3Nc3ccccc3-4)cc2)CC1)c1cccc(F)c1 [Example 157, N-(1-(4-(9H-benzo[f]pyrido[2,3-b][1,2,4]triazolo[4,3-d][1,4]diazepin-3-yl)benzyl)piperidin-4-yl)-3-fluorobenzenesulfonamide]
IC50: 2700 nM

SMILES: O=C(c1ccc2c(c1)OCO2)N1CCN(Cc2ccc(-c3nnc4n3-c3cccnc3Nc3ccccc3-4)cc2)CC1 [Example 158, (4-(4-(9H-benzo[f]pyrido[2,3-b][1,2,4]triazolo[4,3-d][1,4]diazepin-3-yl)benzyl)piperazin-1-yl)(benzo[d][1,3]dioxol-5-yl)methanone]
IC50: 6900 nM

SMILES: N#Cc1cccc(C(=O)N2CCN(Cc3ccc(-c4nnc5n4-c4cccnc4Nc4ccccc4-5)cc3)CC2)c1 [Example 159, 3-(4-(4-(9H-benzo[f]pyrido[2,3-b][1,2,4]triazolo[4,3-d][1,4]diazepin-3-yl)benzyl)piperazine-1-carbonyl)benzonitrile]
IC50: 2000 nM

SMILES: Cc1ccc(C(=O)N2CCN(Cc3ccc(-c4nnc5n4-c4cccnc4Nc4ccccc4-5)cc3)CC2)cc1 [Example 160, (4-(4-(9H-benzo[f]pyrido[2,3-b][1,2,4]triazolo[4,3-d][1,4]diazepin-3-yl)benzyl)piperazin-1-yl)(p-tolyl)methanone]
IC50: 3000 nM

SMILES: O=C(c1ccccn1)N1CCN(Cc2ccc(-c3nnc4n3-c3cccnc3Nc3ccccc3-4)cc2)CC1 [Example 161, (4-(4-(9H-benzo[f]pyrido[2,3-b][1,2,4]triazolo[4,3-d][1,4]diazepin-3-yl)benzyl)piperazin-1-yl)(pyridin-2-yl)methanone]
IC50: 4200 nM

SMILES: O=C1NCN(c2ccccc2)C12CCN(Cc1ccc(-c3nnc4n3-c3cccnc3Nc3ccccc3-4)cc1)CC2 [Example 162, 8-(4-(9H-benzo[f]pyrido[2,3-b][1,2,4]triazolo[4,3-d][1,4]diazepin-3-yl)benzyl)-1-phenyl-1,3,8-triazaspiro[4.5]decan-4-one]
IC50: 950 nM

SMILES: N#CC1(c2ccccc2)CCN(Cc2ccc(-c3nnc4n3-c3cccnc3Nc3ccccc3-4)cc2)CC1 [Example 163, 1-(4-(9H-benzo[f]pyrido[2,3-b][1,2,4]triazolo[4,3-d][1,4]diazepin-3-yl)benzyl)-4-phenylpiperidine-4-carbonitrile]
IC50: 7300 nM

SMILES: O=C(c1ccc(F)cc1)C1CCN(Cc2ccc(-c3nnc4n3-c3cccnc3Nc3ccccc3-4)cc2)CC1 [Example 164, (1-(4-(9H-benzo[f]pyrido[2,3-b][1,2,4]triazolo[4,3-d][1,4]diazepin-3-yl)benzyl)piperidin-4-yl)(4-fluorophenyl)methanone]
IC50: 1800 nM

SMILES: O=C(Nc1ccc(F)cc1)NC1CCN(Cc2ccc(-c3nnc4n3-c3cccnc3Nc3ccccc3-4)cc2)CC1 [Example 165, 1-(1-(4-(9H-benzo[f]pyrido[2,3-b][1,2,4]triazolo[4,3-d][1,4]diazepin-3-yl)benzyl)piperidin-4-yl)-3-(4-fluorophenyl)urea]
IC50: 330 nM

SMILES: COc1ccc(C)cc1NC(=O)NC1CCN(Cc2ccc(-c3nnc4n3-c3cccnc3Nc3ccccc3-4)cc2)CC1 [Example 166, 1-(1-(4-(9H-benzo[f]pyrido[2,3-b][1,2,4]triazolo[4,3-d][1,4]diazepin-3-yl)benzyl)piperidin-4-yl)-3-(2-methoxy-5-methylphenyl)urea]
IC50: 720 nM

SMILES: O=C(Nc1ccccc1F)NC1CCN(Cc2ccc(-c3nnc4n3-c3cccnc3Nc3ccccc3-4)cc2)CC1 [Example 167, 1-(1-(4-(9H-benzo[f]pyrido[2,3-b][1,2,4]triazolo[4,3-d][1,4]diazepin-3-yl)benzyl)piperidin-4-yl)-3-(2-fluorophenyl)urea]
IC50: 440 nM

SMILES: COc1ccc(CCNC(=O)NC2CCN(Cc3ccc(-c4nnc5n4-c4cccnc4Nc4ccccc4-5)cc3)CC2)cc1OC [Example 169, 1-(1-(4-(9H-benzo[f]pyrido[2,3-b][1,2,4]triazolo[4,3-d][1,4]diazepin-3-yl)benzyl)piperidin-4-yl)-3-(3,4-dimethoxyphenethyl)urea]
IC50: 6000 nM

SMILES: Cc1cccc(NC(=O)NC2CCN(Cc3ccc(-c4nnc5n4-c4cccnc4Nc4ccccc4-5)cc3)CC2)c1 [Example 170, 1-(1-(4-(9H-benzo[f]pyrido[2,3-b][1,2,4]triazolo[4,3-d][1,4]diazepin-3-yl)benzyl)piperidin-4-yl)-3-(m-tolyl)urea]
IC50: 660 nM

SMILES: COc1cccc(CNC(=O)NC2CCN(Cc3ccc(-c4nnc5n4-c4cccnc4Nc4ccccc4-5)cc3)CC2)c1 [Example 171, 1-(1-(4-(9H-benzo[f]pyrido[2,3-b][1,2,4]triazolo[4,3-d][1,4]diazepin-3-yl)benzyl)piperidin-4-yl)-3-(3-methoxybenzyl)urea]
IC50: 780 nM

Next, values leading:

IC50: 1200 nM
SMILES: COc1ccc(NC(=O)NC2CCN(Cc3ccc(-c4nnc5n4-c4cccnc4Nc4ccccc4-5)cc3)CC2)cc1Cl [Example 172, 1-(1-(4-(9H-benzo[f]pyrido[2,3-b][1,2,4]triazolo[4,3-d][1,4]diazepin-3-yl)benzyl)piperidin-4-yl)-3-(3-chloro-4-methoxyphenyl)urea]

IC50: 910 nM
SMILES: O=C(NCc1ccccc1Cl)NC1CCN(Cc2ccc(-c3nnc4n3-c3cccnc3Nc3ccccc3-4)cc2)CC1 [Example 173, 1-(1-(4-(9H-benzo[f]pyrido[2,3-b][1,2,4]triazolo[4,3-d][1,4]diazepin-3-yl)benzyl)piperidin-4-yl)-3-(2-chlorobenzyl)urea]

IC50: 530 nM
SMILES: O=C(Nc1ccc2c(c1)CCO2)NC1CCN(Cc2ccc(-c3nnc4n3-c3cccnc3Nc3ccccc3-4)cc2)CC1 [Example 175, 1-(1-(4-(9H-benzo[f]pyrido[2,3-b][1,2,4]triazolo[4,3-d][1,4]diazepin-3-yl)benzyl)piperidin-4-yl)-3-(2,3-dihydrobenzofuran-5-yl)urea]

IC50: 1200 nM
SMILES: O=C(Nc1cccc(Cl)c1)NC1CCN(Cc2ccc(-c3nnc4n3-c3cccnc3Nc3ccccc3-4)cc2)CC1 [Example 176, 1-(1-(4-(9H-benzo[f]pyrido[2,3-b][1,2,4]triazolo[4,3-d][1,4]diazepin-3-yl)benzyl)piperidin-4-yl)-3-(3-chlorophenyl)urea]

IC50: 770 nM
SMILES: CCCc1ccccc1NC(=O)NC1CCN(Cc2ccc(-c3nnc4n3-c3cccnc3Nc3ccccc3-4)cc2)CC1 [Example 177, 1-(1-(4-(9H-benzo[f]pyrido[2,3-b][1,2,4]triazolo[4,3-d][1,4]diazepin-3-yl)benzyl)piperidin-4-yl)-3-(2-propylphenyl)urea]

IC50: 790 nM
SMILES: O=C(Nc1cccc(F)c1)NC1CCN(Cc2ccc(-c3nnc4n3-c3cccnc3Nc3ccccc3-4)cc2)CC1 [Example 178, 1-(1-(4-(9H-benzo[f]pyrido[2,3-b][1,2,4]triazolo[4,3-d][1,4]diazepin-3-yl)benzyl)piperidin-4-yl)-3-(3-fluorophenyl)urea]

IC50: 700 nM
SMILES: Cc1ccccc1NC(=O)NC1CCN(Cc2ccc(-c3nnc4n3-c3cccnc3Nc3ccccc3-4)cc2)CC1 [Example 179, 1-(1-(4-(9H-benzo[f]pyrido[2,3-b][1,2,4]triazolo[4,3-d][1,4]diazepin-3-yl)benzyl)piperidin-4-yl)-3-(o-tolyl)urea]
